The test has as its target T1, Serine/threonine-protein kinase ULK1 (Homo sapiens, UniProt O75385).
T1 sequence (O75385 whole entry): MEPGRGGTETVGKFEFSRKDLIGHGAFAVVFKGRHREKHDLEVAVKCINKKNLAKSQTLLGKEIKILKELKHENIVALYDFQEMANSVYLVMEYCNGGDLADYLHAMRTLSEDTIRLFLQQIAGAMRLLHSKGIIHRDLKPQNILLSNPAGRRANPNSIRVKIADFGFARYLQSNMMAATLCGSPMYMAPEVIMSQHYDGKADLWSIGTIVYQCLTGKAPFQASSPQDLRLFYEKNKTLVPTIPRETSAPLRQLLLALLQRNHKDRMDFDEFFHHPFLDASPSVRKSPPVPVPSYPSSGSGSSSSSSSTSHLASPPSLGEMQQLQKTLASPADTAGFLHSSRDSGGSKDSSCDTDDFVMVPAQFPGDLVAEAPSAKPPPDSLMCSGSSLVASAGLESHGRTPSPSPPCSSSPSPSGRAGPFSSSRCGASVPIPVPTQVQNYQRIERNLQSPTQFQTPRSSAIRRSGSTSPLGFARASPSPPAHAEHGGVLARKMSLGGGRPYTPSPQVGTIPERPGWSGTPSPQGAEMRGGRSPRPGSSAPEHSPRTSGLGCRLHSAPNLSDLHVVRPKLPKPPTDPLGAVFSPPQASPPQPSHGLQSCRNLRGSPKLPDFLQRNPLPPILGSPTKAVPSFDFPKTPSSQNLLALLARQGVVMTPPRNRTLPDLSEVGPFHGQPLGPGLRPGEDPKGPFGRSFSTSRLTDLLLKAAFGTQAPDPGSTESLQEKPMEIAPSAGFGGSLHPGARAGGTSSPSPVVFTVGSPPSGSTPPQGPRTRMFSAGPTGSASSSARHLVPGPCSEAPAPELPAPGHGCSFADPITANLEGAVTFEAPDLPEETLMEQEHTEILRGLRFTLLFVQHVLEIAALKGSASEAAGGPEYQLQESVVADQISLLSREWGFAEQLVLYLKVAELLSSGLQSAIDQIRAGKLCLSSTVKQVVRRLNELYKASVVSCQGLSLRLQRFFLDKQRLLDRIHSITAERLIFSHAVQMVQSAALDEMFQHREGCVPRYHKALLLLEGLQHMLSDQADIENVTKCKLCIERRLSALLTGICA
The experiment in a line: ULK1 inhibition assay: Gamma-32P assays to measure ULK1 kinase activity were performed as previously described. Briefly, Flag ULK1 was transfected into HEK293T cells and 20 hours later treated as indicated. The immmunoprecipitate was washed in IP buffer 3 times, and washed in kinase buffer (25 mM MOPS, pH 7.5, 1 mM EGTA, 0.1 mM Na3VO4, 15 mM MgCl2,). Hot and cold ATP were added at a 100 μM final concentration. As substrates, GST or the recombinant protein GST-Atg101 purified from E. coli were used at 1 μg for each reaction. Reactions were boiled, run out on SDS page gel. The gel was dried, and imaged using PhosphoImager software. For cold assays to asses ULK1, Flag ULK1 which was transiently overexpressed and immunoprecipited from HEK293T cells. Reactions were then run out on SDS page gel, transferred to PVDF membrane and blotted for total levelsFluorescence MicroscopyVps34flox/flox MEFs were reconstituted with Flag-VPS34 and either p40FX or GFP-DFCP1. 48 hours post infection with adenovirus expressing Cre recombinase (MOI of 100), cells were plated on glass coverslips at a density of 3×10^5 cells per well in 6-well tissue culture plates. 18 h later, cells were fixed in 4% PFA in PBS for 10 minutes and permeabilized in 0.2% Triton in PBS for 10 minutes. The following primary antibodies were used: mouse anti-Myc epitope and LC3B XP antibody (2276 and 3868 respectively, Cell Signaling Technologies). Secondary antibodies were anti-rabbit Alexa488 and anti-mouse Alexa594 (Molecular Probes, 1:1000. Cells were then fixed and counter stained with DAPI. Coverslips were mounted in FluoromountG (SouthernBiothech). Images were acquired on a Zeiss Axioplan2 epifluorescence microscope coupled to the Openlab software. Confocal images of mitotracker were taken on Zeiss LSM 710 laser scanning confocal microscope. 10 random fields per condition were acquired using the 100× objective and representative images shown. Glass coverslips were mounted directly on plate with FluoromountG and images taken on Zeiss Axioplan2 epifluorescence microscope.

The structures appear in SMILES notation.

For orientation: IC50 means the concentration at which inhibition is half-maximal. `CCN1CCOc2cc(Nc3ncc(C(F)(F)F)c(NC4CC4)n3)cnc21`: the IC50 is less than 200 nM.

Regarding `COc1ccc(Nc2ncc(C(F)(F)F)c(NC3CC3)n2)cc1OC`, the IC50 is less than 200 nM.

In the case of `COc1cc(Nc2ncc(Br)c(-n3nnc4ccccc43)n2)cc(OC)c1OC`, the IC50 was greater than 2000 nM.

As for `COc1cc(Nc2ncc(Cl)c(Nc3ccccc3CO)n2)cc(OC)c1OC`, the IC50 is greater than 2000 nM.

On to `COc1cc(Nc2ncc(Br)c(Oc3cccc4cc[nH]c34)n2)cc(OC)c1OC`, for which the IC50 is greater than 2000 nM.

Regarding `CNC(=O)c1ccc(OC)cc1Oc1ncc(Br)c(Nc2cc(OC)c(OC)c(OC)c2)n1`, the IC50 was greater than 2000 nM.

For the molecule `Nc1ccccc1Oc1nc(Nc2ccc3c(c2)OCO3)ncc1Br`, the IC50 is less than 200 nM.

Turning to `O=C1CCc2cc(Nc3ncc(C(F)(F)F)c(Nc4ccc5c(c4)OCO5)n3)ccc2N1`, the IC50 is less than 200 nM.

For `COc1cc(Nc2ncc(Br)c(Oc3ccccc3NC(=O)C(F)(F)F)n2)cc(OC)c1OC`, the IC50 is less than 200 nM.

With `COc1cc(Nc2nc(Oc3cccc4c3N(C(C)=O)CCC4)ncc2Br)cc(O)c1OC`, the IC50 was less than 200 nM.

As to `COc1cc(Nc2ncc(Br)c(Oc3cccc4c3CCCC4)n2)cc(OC)c1OC`, the IC50 was greater than 2000 nM.

In the case of `NC(=O)c1cccc(Nc2ncc(C(F)(F)F)c(Nc3ccc4c(c3)OCO4)n2)c1`, the IC50 was less than 200 nM.

Take `COc1cc(Nc2nc(Oc3cccc4cc[nH]c34)ncc2Br)cc(O)c1OC`: the IC50 was greater than 2000 nM.

For `COc1ccc(Nc2ncc(C(F)(F)F)c(Nc3ccc4c(c3)OCO4)n2)cc1`, the IC50 was less than 200 nM.

With `CNC(=O)c1ccc(OC)cc1Oc1nc(Nc2cc(O)c(OC)c(OC)c2)ncc1Br`, the IC50 was greater than 2000 nM.

For `COc1cc(Nc2ncc(Br)c(Oc3ccccc3NS(C)(=O)=O)n2)cc(OC)c1OC`, the IC50 was greater than 2000 nM.

With `COc1cc(Nc2ncc(Br)c(Oc3ccccc3[S+](C)[O-])n2)cc(OC)c1OC` (configuration not stated), the IC50 was greater than 2000 nM.

`COCC(C)(CN(C)C)Nc1nc(Nc2ccc3c(c2)CCC(=O)N3)ncc1C(F)(F)F` (configuration not stated): the IC50 is greater than 2000 nM.

Consider `CNC(=O)Cc1ccccc1Oc1nc(Nc2cc(OC)c(OC)c(OC)c2)ncc1Br`, for which the IC50 was greater than 2000 nM.

For `COc1cc(Nc2ncc(Br)c(Oc3cccc4ccncc34)n2)cc(OC)c1OC`, the IC50 was greater than 2000 nM.

Take `COc1cc(Nc2ncc(Br)c(Oc3cccc4cccnc34)n2)cc(OC)c1OC`: the IC50 is greater than 2000 nM.

`COc1cc(Nc2ncc(Br)c(Oc3ccccc3O)n2)cc(OC)c1OC`: the IC50 is greater than 2000 nM.

`CC(=O)NNc1nc(Nc2ccc3c(c2)CCC(=O)N3)ncc1C(F)(F)F`: the IC50 was greater than 2000 nM.

Turning to `CNC(=O)c1ccccc1COc1nc(Nc2cc(OC)c(OC)c(OC)c2)ncc1Br`, the IC50 is greater than 2000 nM.

Turning to `CCN1CCOc2cc(Nc3nc(Nc4ccc5c(c4)CCC(=O)N5)ncc3Br)cnc21`, the IC50 is less than 200 nM.

With `FC(F)(F)c1cnc(Nc2cccc(Cl)c2Cl)nc1Nc1ccc2c(c1)OCO2`, the IC50 was greater than 2000 nM.

With `Oc1nc(Nc2cnc3[nH]ccc3c2)ncc1C(F)(F)F`, the IC50 is greater than 2000 nM.

Take `COc1cc(Nc2ncc(Br)c(Oc3ccccc3C3=NC(C)(C)CO3)n2)cc(OC)c1OC`: the IC50 was greater than 2000 nM.

For the molecule `FC(F)(F)c1cnc(Nc2ccc(-n3cccc3)cc2)nc1Nc1ccc2c(c1)OCO2`, the IC50 is less than 200 nM.

For the molecule `FC(F)(F)c1cnc(Nc2cccc(Oc3ccccc3)c2)nc1Nc1ccc2c(c1)OCO2`, the IC50 is greater than 2000 nM.

Regarding `CC(=O)Nc1ccccc1Oc1nc(Nc2ccc3c(c2)OCO3)ncc1Br`, the IC50 was greater than 2000 nM.

For `OCc1ccccc1Nc1nc(Nc2cc(F)c(F)c(F)c2)ncc1Br`, the IC50 is greater than 2000 nM.

For `O=C1CCc2cc(Nc3ncc(C(F)(F)F)c(NCCCNC(=O)C4CC4)n3)ccc2N1`, the IC50 is less than 200 nM.

For `COc1cc(Nc2ncc(Br)c(Oc3cccc(O)c3[N+](=O)[O-])n2)cc(OC)c1OC`, the IC50 is greater than 2000 nM.

For `COc1cc(Nc2ncc(C(F)(F)F)c(Oc3ccccc3N)n2)cc(OC)c1OC`, the IC50 is less than 200 nM.

Consider `CNC(=O)c1ccccc1Oc1nc(Nc2ccc3c(c2)CCC(=O)N3)ncc1Br`, for which the IC50 is greater than 2000 nM.

As for `FC(F)(F)c1cnc(Nc2ccc3c(c2)CCC3)nc1Nc1ccc2c(c1)OCO2`, the IC50 is less than 200 nM.

Take `O=c1[nH][nH]c(=O)c2cc(Nc3ncc(C(F)(F)F)c(NC4CC4)n3)ccc12`: the IC50 is less than 200 nM.

On to `O=C1CCc2cc(Nc3ncc(C(F)(F)F)c(Nc4ccccc4CO)n3)ccc2N1`, for which the IC50 is less than 200 nM.

As to `COc1cc(Nc2ncc(Br)c(Oc3cccc4c3N(C(C)=O)CCC4)n2)cc(OC)c1OC`, the IC50 was greater than 2000 nM.

`COc1cc(Nc2ncc(Br)c(Oc3ccccc3CN(C)C)n2)cc(OC)c1OC`: the IC50 is greater than 2000 nM.

As for `O=C(C1CC1)N1CCc2cc(Nc3ncc(C(F)(F)F)c(NC4CC4)n3)ccc2C1`, the IC50 was less than 200 nM.

On to `COc1cc(Nc2ncc(Br)c(Oc3ccccc3NC(=O)C(C)(C)C)n2)cc(OC)c1OC`, for which the IC50 was greater than 2000 nM.

Consider `COc1cc(Nc2ncc(Br)c(Oc3cccc4[nH]nnc34)n2)cc(OC)c1OC`, for which the IC50 is greater than 2000 nM.

`COc1cc(Nc2ncc(Br)c(Oc3ccccc3CNC(C)=O)n2)cc(OC)c1OC`: the IC50 was greater than 2000 nM.

As to `COc1cc(Nc2nc(Oc3cccc4c3CCCC4)ncc2Br)cc(O)c1OC`, the IC50 is greater than 2000 nM.

Turning to `COc1cccc(Nc2nc(Nc3ccc(OC(F)(F)F)c(Cl)c3)ncc2C(F)(F)F)c1`, the IC50 was greater than 2000 nM.

Source of the values: ChEMBL document CHEMBL5726856, “ULK1 inhibitors and methods using same” (2019).
